system: isolated rat soleus muscles; experiment: Recovery of nerve-stimulated force in isolated rat soleus muscles exposed to sub-maximal tubocurarine; assay type: cell-based; settings: not given
Description: Experiments were performed using rat soleus muscles from either young (4-wk-old) or adult Wistar rats (12-14-week-old). Animal handling, killing and isolation of muscle is described elsewhere All experiments were performed using normal Krebs-Ringer bicarbonate solution (NKR). In solutions with elevated Mg^2+, MgCl2 was added to NKR-solution causing minor increases in osmolarity and ionic strength. In solutions with elevated K^+, 4 mM NaCl was replaced by 4 mM KCl in the NKR.
In all contraction experiments, isometric force production was determined and force produced during contractions was quantified by measuring the integral of the force response (AUC). Stimulation and force recordings have been described elsewhere. […] In these latter experiments, extracellular recordings of action potentials (M-waves) could be measured without temporal overlap with stimulation artefacts.
The aim was to find compounds that by inhibition of CIC-1 channels can recover nerve-stimulated force under conditions of fatigue including conditions where fatigue is caused by compromised neuromuscular transmission. Neuromuscular transmission dysfunction can develop because of both pre- and/or post-synaptic complications in connection with a disorder or as part of neuromuscular blockade during/after surgery. In the initial series of drug testing, experiments were performed with isolated muscles in the presence of sub-maximal ACh receptor antagonist tubocurarine. Since the inclusion of tubocurarine caused a partial loss of neuromuscular transmission this experiment mimics the conditions in myasthenia gravis and neuromuscular blockade. To mimic conditions with pre-synaptic complication (Lambert Eaton syndrome, motor neuron disorder, polyneuropathy) the intact nerve-muscle preparations were incubated at elevated extracellular Mg^2+, which is known to suppress release of ACh from nerve terminals of motor neurons.
The experiments also illustrate that field stimulation of the entire nerve-muscle preparation selectively activates the motor nerve when short-duration pulses (0.02 vs 0.2 ms) were used. In FIG. 1A the preparation was stimulated either via field stimulation or via nerve-stimulation using a suction electrode. With the suction electrode only the nerve could be stimulated. When exposed to a submaximal concentration of the ACh receptor antagonist tubocurarine (0.2 μM) a clear drop in peak force and a further decline (or fade) in force during the stimulation developed. This drop in force clearly reflected compromised neuromuscular transmission, as the decline in peak force and fading were not seen with direct stimulation of the muscle. […] Thus, loss of M-wave and force with tubocurarine reflected partial blockade of neuromuscular function. Such fading of force and M-waves during stimulation represent clinical hallmarks of both myasthenia gravis and neuromuscular blockade in connection with surgery. In FIG. 1B, observations with normal (0.2 ms) and short-duration (0.02 ms) pulses have been compared. It can be seen that only with short-duration pulses did tubocurarine cause a decline in peak force and fading (FIG. 1B). This confirms that short-duration pulses in field stimulation could be used as specific nerve-stimulation. […] Elevated extracellular Mg^2+ could thus be used to partially block neuromuscular transmission and thus be used as a model of conditions with compromised pre-synaptic function (Lambert Eaton syndrome, amyotrophic lateral sclerosis, spinal muscular atrophy). […]

Structure (SMILES) | 50 μM % change after addition (AUC of nerve-stimulated force) [%] | 150 μM % change after addition (AUC of nerve-stimulated force) [%]
CC(Oc1ccc(Cl)cc1)C(=O)Oc1ccc(Cl)cc1 (centres unmarked) [Compound C11, 4-chlorophenyl 2-(4-chlorophenoxy)propanoate] | 46 | 54

molecular target: T1, CIC-1 channels (Rattus norvegicus, UniProt P35524); experiment: Electrophysiological measurement of compound inhibition of CIC-1 in rat muscle (Gm, EC50); assay type: cell-based; settings: rat soleus muscle fibres, three micro-electrode Gm measurement; read-out: EC50 (inhibition of ClC-1 ion channel, Gm)
T1 construct: Gm was measured in individual fibres of whole rat soleus muscles; from tissue; host or cells: soleus muscle of adult (12-14 week old) Wistar rats
T1 sequence (P35524 1-994): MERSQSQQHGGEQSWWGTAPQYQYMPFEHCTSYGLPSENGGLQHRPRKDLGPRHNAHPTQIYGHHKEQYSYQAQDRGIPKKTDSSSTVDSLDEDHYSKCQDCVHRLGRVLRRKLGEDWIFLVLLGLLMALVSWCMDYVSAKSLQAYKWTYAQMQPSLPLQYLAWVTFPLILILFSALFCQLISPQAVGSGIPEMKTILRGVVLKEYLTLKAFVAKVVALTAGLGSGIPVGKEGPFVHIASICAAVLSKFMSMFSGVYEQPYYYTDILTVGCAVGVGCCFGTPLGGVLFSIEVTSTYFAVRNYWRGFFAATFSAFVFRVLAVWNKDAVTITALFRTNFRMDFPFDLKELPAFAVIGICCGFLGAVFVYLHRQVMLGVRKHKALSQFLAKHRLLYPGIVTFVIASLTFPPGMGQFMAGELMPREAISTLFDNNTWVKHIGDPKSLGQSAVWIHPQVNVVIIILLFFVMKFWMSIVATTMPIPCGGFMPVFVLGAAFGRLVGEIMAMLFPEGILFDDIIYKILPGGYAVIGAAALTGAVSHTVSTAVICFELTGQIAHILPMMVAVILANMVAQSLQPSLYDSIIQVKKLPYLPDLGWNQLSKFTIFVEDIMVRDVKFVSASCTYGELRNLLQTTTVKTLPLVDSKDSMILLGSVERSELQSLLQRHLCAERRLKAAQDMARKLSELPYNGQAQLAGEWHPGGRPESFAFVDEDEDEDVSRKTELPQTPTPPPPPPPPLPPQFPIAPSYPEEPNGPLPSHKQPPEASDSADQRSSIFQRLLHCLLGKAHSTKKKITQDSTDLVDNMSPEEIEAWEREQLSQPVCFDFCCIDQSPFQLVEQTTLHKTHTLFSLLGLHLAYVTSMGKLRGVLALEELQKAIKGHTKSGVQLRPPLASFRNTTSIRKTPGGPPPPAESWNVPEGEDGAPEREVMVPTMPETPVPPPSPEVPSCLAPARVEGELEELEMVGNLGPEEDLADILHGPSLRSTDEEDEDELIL

Structure (SMILES) | EC50 [µM]
[2H]CC([2H])[C@H](Oc1ccc(Br)cc1)C(=O)O (stereo partly drawn) [Compound A-76, (2S)-2-(4-bromophenoxy)(3,4-^2H2)butanoic acid] | 3.8 ± 2.1
[2H][C@@](CF)(Oc1ccc(Br)cc1)C(=O)O [Compound A-82, (2R)-2-(4-bromophenoxy)-3-fluoro(2-^2H)propanoic acid] | 5.2 ± 1.3

same assay, conditions: rat soleus muscle fibres; sigmoidal fit of average Gm; read-out: EC50 (inhibition of CIC-1, reduction of Gm)

Structure (SMILES) | EC50 [µM]
CC(C)[C@@H](Oc1ccc(Br)cc1F)C(=O)O [Compound A-4, (2R)-2-(4-bromo-2-fluoraphenoxy)-3-methylbutanoic acid] | > 80

molecular target: T2, human CIC-1 channels (Homo sapiens, UniProt P35523); experiment: Automated patch-clamp on human CIC-1 expressed in CHO cells (shift in half activation voltage V1/2); assay type: cell-based; settings: compound in intracellular solution vs vehicle control patches; CHO cells expressing human ClC-1
T2 construct: host or cells: CHO (Chinese hamster ovary) cells, cryopreserved, used directly after thawing
Description: FIG. 13A-13B: FIG. 13A illustrates the voltage protocol used to evoke currents in whole cell patches of CHO cells expressing human CIC-1 channels.
The investigatory goal of these experiments was to evaluate how compounds affect the open probability and current amplitude of human CIC-1 channels expressed in CHO cells. Experiments were performed using an automated patch clamp system that allowed high throughput testing of whole cell patches together with both intracellular and extracellular addition of compound.
Automated whole cell patch clamp experiments were performed with the Qpatch 16 system (Sophion Bioscience, Ballerup, Denmark) at room temperature. Data acquisition and analysis were performed in the Qassay software (ver. 5.6, Odense).
To obtain tail currents, the membrane potential was stepped to −100 mV after each test voltage for 300 ms and then relaxed to −30 mV for 2 sec between sweeps (FIG. 3). I/V relationships for whole cell instant and steady state current amplitudes were obtained by plotting average current densities at the beginning and at the end of the 300 ms step against the membrane potential (FIG. 4).
In order to determine the relative overall open probability (Po), the instantaneous tail currents were normalized to the maximal tail current obtained following the most positive voltage step and plotted against the test voltage. Plots of normalized tail currents from each whole cell patch were then fitted to a Boltzmann function allowing determination of half activation voltages (V1/2, FIG. 5).
Osmolality adjusted to […] using sucrose.
Intracellular solutions contained: 80 mM […], 60 mM CsCl, 5/1 mM KOH/EGTA, 10 mM HEPES, 10 mM NaCl, pH adjusted to 7.2 with NaOH (2 M). Osmolality adjusted to ˜320 mOsm using sucrose.
Cells used in patch clamp experiments were Chinese hamster ovary cells (CHO) constitutively expressing human CIC-1 channels. The amino acid sequence encoded by the cDNA used to create this cell line was identical to the translated sequence for GenBank accession number NM_000083.2. Cells were produced by Charles River (Catalogue CT6175, Cleveland Ohio, USA) in a cryopreserved format. Experiments were performed on the cells directly after thawing (3×10^6 cells used in each experiment).
To evaluate the compound effect on CIC-1, when applied directly to the intracellular side of the cell membrane, the half activation voltage, V1/2, was determined from whole cell patches with compound added to the intracellular solution and then compared to V1/2 determined from control cell patches with only vehicle added to the intracellular solution. Additionally, the effect of extracellular added compound was evaluated by determine V1/2 and steady state current amplitudes before and after exchanging the extracellular solution to contain compound.
The difference in half activation voltage of CIC-1 channels, […]V1/2, was determined as the difference between the cell patches treated intracellularly with compound and control cells patches and is reported in Table 4 below. A positive shift in […]V1/2 is reflecting CIC-1 channel inhibition by the tested compound. P-values of <0.05 is considered significant.

T2 sequence (P35523 whole entry): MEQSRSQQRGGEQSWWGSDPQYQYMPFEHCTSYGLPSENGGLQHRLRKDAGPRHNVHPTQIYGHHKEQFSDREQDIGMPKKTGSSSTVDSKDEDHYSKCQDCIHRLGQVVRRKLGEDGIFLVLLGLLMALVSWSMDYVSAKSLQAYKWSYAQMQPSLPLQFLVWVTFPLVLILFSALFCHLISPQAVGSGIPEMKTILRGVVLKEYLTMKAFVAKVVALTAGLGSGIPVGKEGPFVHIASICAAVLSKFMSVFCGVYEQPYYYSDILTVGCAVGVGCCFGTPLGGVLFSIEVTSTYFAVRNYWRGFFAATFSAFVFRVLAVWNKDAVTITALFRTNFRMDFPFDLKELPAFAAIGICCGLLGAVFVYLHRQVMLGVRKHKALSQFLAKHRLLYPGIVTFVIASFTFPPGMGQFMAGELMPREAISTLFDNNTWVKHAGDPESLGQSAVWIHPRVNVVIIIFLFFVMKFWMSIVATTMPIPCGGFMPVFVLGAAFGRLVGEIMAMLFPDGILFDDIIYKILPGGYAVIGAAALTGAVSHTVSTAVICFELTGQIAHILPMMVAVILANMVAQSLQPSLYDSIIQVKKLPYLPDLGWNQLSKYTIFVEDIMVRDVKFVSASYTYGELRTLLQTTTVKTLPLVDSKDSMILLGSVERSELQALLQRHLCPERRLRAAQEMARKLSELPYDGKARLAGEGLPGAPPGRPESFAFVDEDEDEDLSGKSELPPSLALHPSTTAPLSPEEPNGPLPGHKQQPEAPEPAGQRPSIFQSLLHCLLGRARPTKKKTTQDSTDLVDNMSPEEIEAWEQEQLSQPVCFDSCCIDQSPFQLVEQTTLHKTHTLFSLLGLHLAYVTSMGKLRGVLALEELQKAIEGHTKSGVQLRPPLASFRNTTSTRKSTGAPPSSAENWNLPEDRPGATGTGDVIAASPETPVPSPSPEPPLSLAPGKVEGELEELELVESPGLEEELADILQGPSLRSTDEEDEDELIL

Structure (SMILES) | ΔV½ (difference in half activation voltage of ClC-1) [mV]
[2H]c1cc(Br)cc([2H])c1O[C@@H](C)C(=O)O [Compound A-6, (2S)-2-[4-bromo(2,6-^2H2)phenoxy]propanoic acid] | 13.0
C[C@H](Oc1ccc(Br)cc1I)C(=O)O [Compound A-8, (2S)-2-(4-bromo-2-iodophenoxy)propanoic acid] | 9.4
O=C(O)[C@@H](Oc1ccc(Br)cc1F)C(F)F [Compound A-9, (2R)-2-(4-bromo-2-fluorophenoxy)-3,3-difluoropropanoic acid] | 15.2
O=C(O)[C@H](CF)Oc1ccc(Br)cc1 [Compound A-26, (2R)-2-(4-bromophenoxy)-3-fluoropropanoic acid] | 19.7
CC(C)[C@H](Oc1ccc(Br)cc1F)C(=O)O [Compound A-27, (2S)-2-(4-bromo-2-fluorophenoxy)-3-methylbutanoic acid] | 20.2
C[C@H](Oc1ccc(Cl)cc1F)C(=O)O [Compound A-38, (2S)-2-(4-chloro-2-fluorophenoxy)propanoic acid] | 17.4
C[C@H](Oc1ccc(Br)cc1Br)C(=O)O [Compound A-40, (2S)-2-(2,4-dibromophenoxy)propanoic acid] | 5.19
CC[C@H](Oc1ccc(Br)cc1F)C(=O)O [Compound A-58, (2S)-2-(4-bromo-2-fluorophenoxy)butanoic acid] | 28.2
C#CC[C@H](Oc1ccc(Br)cc1Br)C(=O)O [Compound A-66, (2S)-2-(2,4-dibromophenoxy)pent-4-ynoic acid] | 27.4
C#CC[C@H](Oc1ccc(Br)cc1Cl)C(=O)O [Compound A-67, (2S)-2-(4-bromo-2-chlorophenoxy)pent-4-ynoic acid] | 37.8
C#CC[C@H](Oc1ccc(Br)cc1F)C(=O)O [Compound A-69, (2S)-2-(4-bromo-2-fluorophenoxy)pent-4-ynoic acid] | 32.6
COC[C@H](Oc1ccc(Br)cc1Br)C(=O)O [Compound A-74, (2S)-2-(2,4-dibromophenoxy)-3-methoxypropanoic acid] | 10.4
[2H]CC([2H])[C@H](Oc1ccc(Br)cc1)C(=O)O (stereo partly drawn) [Compound A-76, (2S)-2-(4-bromophenoxy)(3,4-^2H2)butanoic acid] | 26.2
[2H][C@@](CF)(Oc1ccc(Br)cc1)C(=O)O [Compound A-82, (2R)-2-(4-bromophenoxy)-3-fluoro(2-^2H)propanoic acid] | 19.0
O=C(O)[C@H](CCF)Oc1ccc(Br)cc1F [Compound A-85, (2S)-2-(4-bromo-2-fluorophenoxy)-4-fluorobutanoic acid] | 12.5
O=C(O)[C@H](CCF)Oc1ccc(Br)cc1 [Compound A-87, (2S)-2-(4-bromophenoxy)-4-fluorobutanoic acid] | 16.4
O=C(O)[C@@H](Oc1ccc(Br)cc1F)C1CC1 [Compound A-89, (2S)-2-(4-bromo-2-fluorophenoxy)-2-cyclopropylacetic acid] | 10.3
C[C@@H](F)[C@H](Oc1ccc(Br)cc1F)C(=O)O [Compound A-95, (2R,3R)-2-(4-bromo-2-fluorophenoxy)-3-fluorobutanoic acid] | 10.3
